The values below come from ChEMBL document CHEMBL5338815 (J Med Chem, 2023).

The structures appear in SMILES notation. Calls of active or inactive are those of the source. The calls are words filed in the database; no cut-off is given here.

Series [1] deals with MDA-MB-231. Description: Reduction in H3K9me2 level in human MDA-MB-231 cells at 10 uM by Western blot analysis. The class given is functional, cell-based. Conditions: time 24-96 hrs, TDE = time-dependent effect.
Series [2] addresses Histone-lysine N-methyltransferase EZH2 (Homo sapiens, UniProt Q15910). Description: Inhibition of EZH2 (unknown origin).
The target in series [3] is T1, Histone-lysine N-methyltransferase EHMT1 (Homo sapiens) (UniProt Q9H9B1).
T1 sequence (whole entry): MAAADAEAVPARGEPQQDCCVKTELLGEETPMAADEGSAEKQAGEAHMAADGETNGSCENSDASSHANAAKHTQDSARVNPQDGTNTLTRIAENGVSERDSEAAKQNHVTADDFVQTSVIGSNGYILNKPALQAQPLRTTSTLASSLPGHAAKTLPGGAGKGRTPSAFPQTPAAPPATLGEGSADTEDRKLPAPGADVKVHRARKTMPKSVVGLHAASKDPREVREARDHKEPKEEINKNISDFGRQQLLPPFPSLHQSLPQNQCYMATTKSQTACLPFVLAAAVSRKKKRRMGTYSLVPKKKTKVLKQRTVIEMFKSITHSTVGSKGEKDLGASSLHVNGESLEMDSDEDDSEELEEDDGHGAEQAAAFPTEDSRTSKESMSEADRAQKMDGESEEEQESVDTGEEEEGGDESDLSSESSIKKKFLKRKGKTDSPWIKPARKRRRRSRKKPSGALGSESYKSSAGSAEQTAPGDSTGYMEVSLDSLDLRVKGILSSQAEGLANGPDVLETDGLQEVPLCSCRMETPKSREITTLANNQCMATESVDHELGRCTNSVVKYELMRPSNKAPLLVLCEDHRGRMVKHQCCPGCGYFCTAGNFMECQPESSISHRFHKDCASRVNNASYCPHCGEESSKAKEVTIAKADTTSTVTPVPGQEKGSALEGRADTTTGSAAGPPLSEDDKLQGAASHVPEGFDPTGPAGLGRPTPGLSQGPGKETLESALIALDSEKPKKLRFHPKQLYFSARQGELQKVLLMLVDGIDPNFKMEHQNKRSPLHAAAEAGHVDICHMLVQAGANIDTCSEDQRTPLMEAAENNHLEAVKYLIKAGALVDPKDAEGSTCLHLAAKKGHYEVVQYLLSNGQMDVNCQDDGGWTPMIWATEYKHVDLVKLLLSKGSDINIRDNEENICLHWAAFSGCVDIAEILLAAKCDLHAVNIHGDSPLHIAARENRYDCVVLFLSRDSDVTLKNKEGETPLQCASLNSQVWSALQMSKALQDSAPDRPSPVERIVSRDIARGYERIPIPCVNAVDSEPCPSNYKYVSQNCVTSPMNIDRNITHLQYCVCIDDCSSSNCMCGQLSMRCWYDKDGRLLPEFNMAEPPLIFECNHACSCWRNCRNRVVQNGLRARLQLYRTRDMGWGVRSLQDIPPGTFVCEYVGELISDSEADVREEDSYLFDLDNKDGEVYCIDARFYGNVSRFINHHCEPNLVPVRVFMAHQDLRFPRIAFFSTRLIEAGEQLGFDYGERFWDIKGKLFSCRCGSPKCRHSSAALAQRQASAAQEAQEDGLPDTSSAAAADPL
Description: Covalent inhibition of recombinant GLP (unknown origin) assessed as adduct formation intensity by measuring mass after 12 hrs by mass spectrometric analysis.

For series [4], the target named is Histone-lysine N-methyltransferase 2B (Homo sapiens, UniProt Q9UMN6). Put plainly: Inhibition of MLL4 (unknown origin).
The next series concerns PANC-1. Put plainly: Inhibition of colony formation in human PANC-1 cells at […] incubated for 14 days drug medium changed for every 2 days by crystal violet staining based analysis. In kind it is cell-based. The note with it: dose 2.5 µM, time 14.0 day.
For series [5], the system named is MDA-MB-231. Description: Antiproliferative activity against human MDA-MB-231 cells assessed as cell viability measured after 24 hrs by CCK-8 assay. The class given is functional, cell-based. The note with it: MDA-MB-231, 24 h. (In general: Tetrazolium assays rely on reduction of a dye to a coloured formazan, in cell work by metabolically active cells.)
The target of series [6] is Histone-lysine N-methyltransferase 2A (Homo sapiens, UniProt Q03164). Put plainly: Inhibition of MLL1 (unknown origin).
For series [7], the target named is T1, Histone-lysine N-methyltransferase EHMT1 (Homo sapiens). Put plainly: Covalent inhibition of recombinant GLP (unknown origin) assessed as adduct formation intensity by mass spectrometric analysis. Conditions: time <= 16.0 hrs, TDE = time-dependent effect.
Series [8] deals with T2, Histone-arginine methyltransferase CARM1 (Homo sapiens, UniProt Q86X55).
T2 sequence (Q86X55 whole entry): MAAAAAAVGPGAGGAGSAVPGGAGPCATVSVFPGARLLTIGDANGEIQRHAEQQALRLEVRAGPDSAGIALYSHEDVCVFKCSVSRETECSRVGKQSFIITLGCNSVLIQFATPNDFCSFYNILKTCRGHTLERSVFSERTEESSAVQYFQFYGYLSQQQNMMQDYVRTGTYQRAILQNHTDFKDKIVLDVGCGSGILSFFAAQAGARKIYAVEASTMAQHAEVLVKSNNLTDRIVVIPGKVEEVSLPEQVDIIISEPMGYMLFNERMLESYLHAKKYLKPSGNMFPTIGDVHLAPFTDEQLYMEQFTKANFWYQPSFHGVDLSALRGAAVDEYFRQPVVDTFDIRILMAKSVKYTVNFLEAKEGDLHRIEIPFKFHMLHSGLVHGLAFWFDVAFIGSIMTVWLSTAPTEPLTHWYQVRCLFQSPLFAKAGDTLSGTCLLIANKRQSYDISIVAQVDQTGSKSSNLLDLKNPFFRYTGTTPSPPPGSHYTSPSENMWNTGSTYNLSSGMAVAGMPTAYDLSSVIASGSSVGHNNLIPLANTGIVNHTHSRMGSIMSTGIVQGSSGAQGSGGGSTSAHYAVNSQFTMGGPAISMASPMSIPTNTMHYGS
Description: Inhibition of PRMT4 (unknown origin).

The test system of series [9] is MDA-MB-231. Put plainly: Inhibition of colony formation in human MDA-MB-231 cells at […] incubated for 14 days drug medium changed for every 2 days by crystal violet staining based analysis. In kind it is cell-based. The note with it: dose 2.5 µM, time 14.0 day.
For series [10], the target named is DNA (cytosine-5)-methyltransferase 1 (Homo sapiens, UniProt P26358). Put plainly: Inhibition of DNMT1 (unknown origin).
Sequence of DNA (cytosine-5)-methyltransferase 1 (P26358 whole entry): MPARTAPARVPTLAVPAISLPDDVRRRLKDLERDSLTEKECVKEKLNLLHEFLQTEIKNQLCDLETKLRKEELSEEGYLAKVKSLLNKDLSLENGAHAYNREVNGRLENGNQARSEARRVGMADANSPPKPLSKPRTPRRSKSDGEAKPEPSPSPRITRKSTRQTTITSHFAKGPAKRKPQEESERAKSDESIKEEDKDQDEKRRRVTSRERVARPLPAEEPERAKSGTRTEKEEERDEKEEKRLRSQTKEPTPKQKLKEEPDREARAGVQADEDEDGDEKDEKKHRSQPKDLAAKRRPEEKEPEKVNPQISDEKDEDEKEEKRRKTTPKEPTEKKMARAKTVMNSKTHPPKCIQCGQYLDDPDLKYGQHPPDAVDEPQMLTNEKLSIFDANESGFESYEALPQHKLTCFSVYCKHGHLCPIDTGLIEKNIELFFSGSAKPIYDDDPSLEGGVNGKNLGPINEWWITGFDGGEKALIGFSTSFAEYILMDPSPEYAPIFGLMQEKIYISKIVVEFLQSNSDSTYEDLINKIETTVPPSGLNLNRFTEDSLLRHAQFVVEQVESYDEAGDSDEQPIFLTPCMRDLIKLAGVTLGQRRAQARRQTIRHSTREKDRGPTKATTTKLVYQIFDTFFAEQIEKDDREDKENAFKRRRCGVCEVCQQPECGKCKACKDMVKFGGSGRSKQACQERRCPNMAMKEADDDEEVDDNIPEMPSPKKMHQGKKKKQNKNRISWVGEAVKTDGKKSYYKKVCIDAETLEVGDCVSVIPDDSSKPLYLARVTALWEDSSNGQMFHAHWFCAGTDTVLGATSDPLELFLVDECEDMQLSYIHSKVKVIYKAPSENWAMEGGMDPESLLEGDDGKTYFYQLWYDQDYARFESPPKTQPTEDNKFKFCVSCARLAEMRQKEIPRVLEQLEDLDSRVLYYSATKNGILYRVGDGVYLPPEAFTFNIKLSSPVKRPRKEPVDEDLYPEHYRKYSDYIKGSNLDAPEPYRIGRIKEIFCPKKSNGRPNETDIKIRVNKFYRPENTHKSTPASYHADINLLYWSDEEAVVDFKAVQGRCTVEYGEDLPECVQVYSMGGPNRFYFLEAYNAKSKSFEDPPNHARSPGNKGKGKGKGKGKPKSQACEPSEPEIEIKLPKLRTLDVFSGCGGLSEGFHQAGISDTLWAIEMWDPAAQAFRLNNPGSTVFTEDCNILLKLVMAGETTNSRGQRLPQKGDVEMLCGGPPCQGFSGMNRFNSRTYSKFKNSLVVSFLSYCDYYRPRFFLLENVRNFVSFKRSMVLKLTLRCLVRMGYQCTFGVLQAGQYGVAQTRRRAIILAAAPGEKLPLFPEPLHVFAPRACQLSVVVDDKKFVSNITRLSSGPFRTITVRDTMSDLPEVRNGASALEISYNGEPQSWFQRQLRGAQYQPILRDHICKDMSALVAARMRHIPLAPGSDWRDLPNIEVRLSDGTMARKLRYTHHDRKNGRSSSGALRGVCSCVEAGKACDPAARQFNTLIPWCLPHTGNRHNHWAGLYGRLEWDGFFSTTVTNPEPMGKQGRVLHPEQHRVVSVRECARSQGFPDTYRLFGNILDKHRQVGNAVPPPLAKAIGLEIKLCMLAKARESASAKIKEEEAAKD
Series [11] can be described thus: AUC (0 to infinity) in ICR mouse at 2 mg/kg, ip measured upto 24 hrs by LC-MS/MS analysis. Also noted: dose 2 mg/kg, time < 24 hrs, route ip. In kind it is ADME, organism-based. Conditions: in vivo.
Series [12] has as its target Protein arginine N-methyltransferase 5 (Homo sapiens, UniProt O14744). Description: Inhibition of PRMT5 (unknown origin).
Series [13] deals with T3, Histone-lysine N-methyltransferase EHMT1 (Homo sapiens, UniProt Q9H9B1).
T3 sequence (Q9H9B1 whole entry): T1 sequence (whole entry)
Description: Inhibition of GLP (unknown origin) by AlphaLISA assay.

Sequence of Protein arginine N-methyltransferase 5 (O14744 whole entry): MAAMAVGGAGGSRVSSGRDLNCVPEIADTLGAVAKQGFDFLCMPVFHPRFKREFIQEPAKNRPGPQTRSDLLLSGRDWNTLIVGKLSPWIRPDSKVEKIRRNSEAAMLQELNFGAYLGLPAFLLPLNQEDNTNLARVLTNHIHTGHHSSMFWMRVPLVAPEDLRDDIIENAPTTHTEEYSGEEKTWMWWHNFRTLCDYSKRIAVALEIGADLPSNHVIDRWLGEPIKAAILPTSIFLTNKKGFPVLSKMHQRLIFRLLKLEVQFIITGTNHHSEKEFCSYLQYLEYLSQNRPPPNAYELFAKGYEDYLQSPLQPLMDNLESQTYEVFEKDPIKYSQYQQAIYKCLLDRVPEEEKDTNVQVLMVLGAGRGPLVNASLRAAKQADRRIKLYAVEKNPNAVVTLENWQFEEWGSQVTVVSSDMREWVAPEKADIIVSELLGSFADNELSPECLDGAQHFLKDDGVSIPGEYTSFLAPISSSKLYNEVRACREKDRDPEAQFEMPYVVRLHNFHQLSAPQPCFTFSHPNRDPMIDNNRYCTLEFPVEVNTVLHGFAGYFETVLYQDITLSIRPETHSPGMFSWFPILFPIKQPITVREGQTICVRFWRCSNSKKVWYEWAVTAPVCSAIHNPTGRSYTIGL
Sequence of Histone-lysine N-methyltransferase EZH2 (Q15910 whole entry): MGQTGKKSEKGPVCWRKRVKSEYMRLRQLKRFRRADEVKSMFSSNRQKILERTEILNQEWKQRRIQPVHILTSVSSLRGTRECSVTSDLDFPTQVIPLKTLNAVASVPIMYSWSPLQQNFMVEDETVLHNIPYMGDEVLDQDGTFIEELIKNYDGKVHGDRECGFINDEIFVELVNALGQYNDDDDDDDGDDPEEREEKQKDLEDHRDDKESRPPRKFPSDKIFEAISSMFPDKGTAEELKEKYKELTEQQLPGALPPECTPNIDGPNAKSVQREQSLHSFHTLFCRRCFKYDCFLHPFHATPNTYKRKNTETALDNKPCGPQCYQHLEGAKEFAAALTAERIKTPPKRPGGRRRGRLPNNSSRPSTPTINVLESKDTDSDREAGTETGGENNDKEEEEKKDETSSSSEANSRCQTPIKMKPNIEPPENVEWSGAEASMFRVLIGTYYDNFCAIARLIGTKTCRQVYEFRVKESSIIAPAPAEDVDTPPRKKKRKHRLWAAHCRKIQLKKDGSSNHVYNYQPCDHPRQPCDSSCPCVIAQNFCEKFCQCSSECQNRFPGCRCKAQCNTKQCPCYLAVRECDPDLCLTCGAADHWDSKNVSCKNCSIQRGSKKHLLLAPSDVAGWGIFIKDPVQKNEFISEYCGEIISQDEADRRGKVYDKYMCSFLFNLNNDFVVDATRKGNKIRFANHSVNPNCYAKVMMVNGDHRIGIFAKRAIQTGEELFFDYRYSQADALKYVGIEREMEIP

Regarding `C=CC(=O)N(C)c1nc(NC2CCN(C)CC2)c2cc(OC)c(OCCCN3CCCC3)cc2n1`, the inhibition entry (with MDA-MB-231 [1]; in series [7]) was “Tde” in each case. In addition, the IC50 (in general, the concentration that inhibits the measured activity by half) was more than 20 µM in [2]; more than 20 µM in [4]; 2.88 µM with MDA-MB-231 [5]; more than 20 µM in series [6]; 6.68 µM in series [8]; more than 20 µM in [10]. Further, the 50% inhibitory concentration (IC50) in [12] is more than 20 µM; in series [13] it was 0.005 µM. Further, the Activity in [3] was 53800 Da. In addition, the inhibition entry in the series with PANC-1 and in the series with MDA-MB-231 [9] was “Active” in each case. The AUC(0-inf) (commonly total exposure, with the tail of the curve extrapolated) in series [11] came out at 214 ng·h/mL.
